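Exposure lasted 48 hours, with cells grown in 96-well plates and compounds tested at five concentrations. Abbreviation: GI50, concentration required for 50% inhibition of growth. Definition used: TGI = concentration required for complete inhibition of growth.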
Each compound was assayed on SW-620 colon (assay: DTP human tumour cell line panel, 48 h).

| SMILES | TGI [µM] | GI50 [µM] |
| --- | --- | --- |
| Oc1cn(-c2ccc(Cl)cc2)nc1-c1n[nH]c(=S)n1-c1ccccc1 | 20.4 |  |
| CC(C)=CCc1cc(O)cc2c1OC(C=C(C)C)C1=C2C(=O)C2=C(C1=O)S(=O)(=O)CCN2 (configuration not stated) | 16.5 | 5.34 |

What follows are compounds tested on MOLT-4 leukemia (assay: DTP human tumour cell line panel, 48 h).

| SMILES | TGI [µM] | GI50 [µM] |
| --- | --- | --- |
| O=c1c2ncn(C3CCCO3)c2n(-c2ccccc2)c(=S)n1-c1ccccc1 (configuration not stated) | > 100 |  |
| CC(=O)c1c(O)ccc2c1c1c(n2C)C(=O)c2ccccc2C1=O | > 100 |  |
| O=C1CCC/C=C\C[C@H]2C=CC(=O)/C2=C/C[C@H](C/C=C\CC(F)(F)F)O1 | 7.51 | 0.984 |
| Oc1cn(-c2ccc(Cl)cc2)nc1-c1n[nH]c(=S)n1-c1ccccc1 | > 100 |  |
| CC(C)=CCc1cc(O)cc2c1OC(C=C(C)C)C1=C2C(=O)C2=C(C1=O)S(=O)(=O)CCN2 (configuration not stated) | 8.99 | 3.4 |

The compounds below were run on SF-268 CNS (assay: DTP human tumour cell line panel, 48 h).

| SMILES | TGI [µM] | GI50 [µM] |
| --- | --- | --- |
| O=c1c2ncn(C3CCCO3)c2n(-c2ccccc2)c(=S)n1-c1ccccc1 (configuration not stated) | > 100 |  |
| CC(=O)c1c(O)ccc2c1c1c(n2C)C(=O)c2ccccc2C1=O | 7.97 |  |
| O=C1CCC/C=C\C[C@H]2C=CC(=O)/C2=C/C[C@H](C/C=C\CC(F)(F)F)O1 | 2.12 | 0.522 |
| Oc1cn(-c2ccc(Cl)cc2)nc1-c1n[nH]c(=S)n1-c1ccccc1 | 64.2 |  |
| CC(C)=CCc1cc(O)cc2c1OC(C=C(C)C)C1=C2C(=O)C2=C(C1=O)S(=O)(=O)CCN2 (configuration not stated) | 8.37 | 2.91 |

The compounds below were run on HCC-2998 colon (assay: DTP human tumour cell line panel, 48 h).

| SMILES | TGI [µM] | GI50 [µM] |
| --- | --- | --- |
| O=c1c2ncn(C3CCCO3)c2n(-c2ccccc2)c(=S)n1-c1ccccc1 (configuration not stated) | > 100 |  |
| CC(=O)c1c(O)ccc2c1c1c(n2C)C(=O)c2ccccc2C1=O | 1.36 |  |
| O=C1CCC/C=C\C[C@H]2C=CC(=O)/C2=C/C[C@H](C/C=C\CC(F)(F)F)O1 | 0.733 | 0.384 |
| CC(C)=CCc1cc(O)cc2c1OC(C=C(C)C)C1=C2C(=O)C2=C(C1=O)S(=O)(=O)CCN2 (configuration not stated) | > 16.7 | 5.53 |

These compounds were tested on A549 NSCLC (assay: DTP human tumour cell line panel, 48 h).

| SMILES | TGI [µM] | GI50 [µM] |
| --- | --- | --- |
| O=c1c2ncn(C3CCCO3)c2n(-c2ccccc2)c(=S)n1-c1ccccc1 (configuration not stated) | > 100 |  |
| CC(=O)c1c(O)ccc2c1c1c(n2C)C(=O)c2ccccc2C1=O | > 100 |  |
| O=C1CCC/C=C\C[C@H]2C=CC(=O)/C2=C/C[C@H](C/C=C\CC(F)(F)F)O1 | 2.38 | 0.528 |
| Oc1cn(-c2ccc(Cl)cc2)nc1-c1n[nH]c(=S)n1-c1ccccc1 | 35.6 |  |
| CC(C)=CCc1cc(O)cc2c1OC(C=C(C)C)C1=C2C(=O)C2=C(C1=O)S(=O)(=O)CCN2 (configuration not stated) | > 16.7 | 6.14 |

What follows are compounds tested on HL-60(TB) leukemia (assay: DTP human tumour cell line panel, 48 h).

| SMILES | TGI [µM] | GI50 [µM] |
| --- | --- | --- |
| O=c1c2ncn(C3CCCO3)c2n(-c2ccccc2)c(=S)n1-c1ccccc1 (configuration not stated) | > 100 |  |
| CC(=O)c1c(O)ccc2c1c1c(n2C)C(=O)c2ccccc2C1=O | > 100 |  |
| O=C1CCC/C=C\C[C@H]2C=CC(=O)/C2=C/C[C@H](C/C=C\CC(F)(F)F)O1 | 2.58 | 0.495 |
| Oc1cn(-c2ccc(Cl)cc2)nc1-c1n[nH]c(=S)n1-c1ccccc1 | > 100 |  |

These compounds were tested on SK-OV-3 ovarian (assay: DTP human tumour cell line panel, 48 h).

| SMILES | TGI [µM] | GI50 [µM] |
| --- | --- | --- |
| O=c1c2ncn(C3CCCO3)c2n(-c2ccccc2)c(=S)n1-c1ccccc1 (configuration not stated) | > 100 |  |
| CC(=O)c1c(O)ccc2c1c1c(n2C)C(=O)c2ccccc2C1=O | > 100 |  |
| O=C1CCC/C=C\C[C@H]2C=CC(=O)/C2=C/C[C@H](C/C=C\CC(F)(F)F)O1 | 3.02 | 0.757 |
| Oc1cn(-c2ccc(Cl)cc2)nc1-c1n[nH]c(=S)n1-c1ccccc1 | 51.3 |  |
| CC(C)=CCc1cc(O)cc2c1OC(C=C(C)C)C1=C2C(=O)C2=C(C1=O)S(=O)(=O)CCN2 (configuration not stated) | > 16.7 | 8.06 |

The compounds below were run on HOP-92 NSCLC (assay: DTP human tumour cell line panel, 48 h).

| SMILES | GI50 [µM] | TGI [µM] |
| --- | --- | --- |
| O=C1CCC/C=C\C[C@H]2C=CC(=O)/C2=C/C[C@H](C/C=C\CC(F)(F)F)O1 | 1.85 | 5.01 |
| Oc1cn(-c2ccc(Cl)cc2)nc1-c1n[nH]c(=S)n1-c1ccccc1 |  | > 100 |
| CC(C)=CCc1cc(O)cc2c1OC(C=C(C)C)C1=C2C(=O)C2=C(C1=O)S(=O)(=O)CCN2 (configuration not stated) | 6.05 | > 16.7 |

Each compound was assayed on SR leukemia (assay: DTP human tumour cell line panel, 48 h).

| SMILES | TGI [µM] |
| --- | --- |
| O=c1c2ncn(C3CCCO3)c2n(-c2ccccc2)c(=S)n1-c1ccccc1 (configuration not stated) | > 100 |
| Oc1cn(-c2ccc(Cl)cc2)nc1-c1n[nH]c(=S)n1-c1ccccc1 | 94 |

Each compound was assayed on HT29 colon (assay: DTP human tumour cell line panel, 48 h).

| SMILES | TGI [µM] | GI50 [µM] |
| --- | --- | --- |
| O=c1c2ncn(C3CCCO3)c2n(-c2ccccc2)c(=S)n1-c1ccccc1 (configuration not stated) | > 100 |  |
| CC(=O)c1c(O)ccc2c1c1c(n2C)C(=O)c2ccccc2C1=O | > 100 |  |
| O=C1CCC/C=C\C[C@H]2C=CC(=O)/C2=C/C[C@H](C/C=C\CC(F)(F)F)O1 | 0.696 | 0.352 |
| Oc1cn(-c2ccc(Cl)cc2)nc1-c1n[nH]c(=S)n1-c1ccccc1 | 44 |  |
| CC(C)=CCc1cc(O)cc2c1OC(C=C(C)C)C1=C2C(=O)C2=C(C1=O)S(=O)(=O)CCN2 (configuration not stated) | > 16.7 | 6.61 |

What follows are compounds tested on NCI-H226 lung (assay: DTP human tumour cell line panel, 48 h).

| SMILES | TGI [µM] | GI50 [µM] |
| --- | --- | --- |
| O=c1c2ncn(C3CCCO3)c2n(-c2ccccc2)c(=S)n1-c1ccccc1 (configuration not stated) | > 100 |  |
| O=C1CCC/C=C\C[C@H]2C=CC(=O)/C2=C/C[C@H](C/C=C\CC(F)(F)F)O1 | 1.01 | 0.382 |
| Oc1cn(-c2ccc(Cl)cc2)nc1-c1n[nH]c(=S)n1-c1ccccc1 | 59.8 |  |
| CC(C)=CCc1cc(O)cc2c1OC(C=C(C)C)C1=C2C(=O)C2=C(C1=O)S(=O)(=O)CCN2 (configuration not stated) | > 16.7 | 4.75 |

What follows are compounds tested on LOX IMVI melanoma (assay: DTP human tumour cell line panel, 48 h).

| SMILES | TGI [µM] | GI50 [µM] |
| --- | --- | --- |
| O=c1c2ncn(C3CCCO3)c2n(-c2ccccc2)c(=S)n1-c1ccccc1 (configuration not stated) | > 100 |  |
| CC(=O)c1c(O)ccc2c1c1c(n2C)C(=O)c2ccccc2C1=O | > 100 |  |
| O=C1CCC/C=C\C[C@H]2C=CC(=O)/C2=C/C[C@H](C/C=C\CC(F)(F)F)O1 | 0.591 | 0.288 |
| CC(C)=CCc1cc(O)cc2c1OC(C=C(C)C)C1=C2C(=O)C2=C(C1=O)S(=O)(=O)CCN2 (configuration not stated) | 10.2 | 3.48 |

The compounds below were run on BT-549 breast (assay: DTP human tumour cell line panel, 48 h).

| SMILES | TGI [µM] | GI50 [µM] |
| --- | --- | --- |
| O=c1c2ncn(C3CCCO3)c2n(-c2ccccc2)c(=S)n1-c1ccccc1 (configuration not stated) | > 100 |  |
| CC(=O)c1c(O)ccc2c1c1c(n2C)C(=O)c2ccccc2C1=O | > 100 |  |
| O=C1CCC/C=C\C[C@H]2C=CC(=O)/C2=C/C[C@H](C/C=C\CC(F)(F)F)O1 | 0.659 | 0.292 |
| CC(C)=CCc1cc(O)cc2c1OC(C=C(C)C)C1=C2C(=O)C2=C(C1=O)S(=O)(=O)CCN2 (configuration not stated) | > 16.7 | 5.18 |

The compounds below were run on PC-3 prostate (assay: DTP human tumour cell line panel, 48 h).

| SMILES | TGI [µM] | GI50 [µM] |
| --- | --- | --- |
| O=c1c2ncn(C3CCCO3)c2n(-c2ccccc2)c(=S)n1-c1ccccc1 (configuration not stated) | > 100 |  |
| O=C1CCC/C=C\C[C@H]2C=CC(=O)/C2=C/C[C@H](C/C=C\CC(F)(F)F)O1 | 2.71 | 0.574 |
| Oc1cn(-c2ccc(Cl)cc2)nc1-c1n[nH]c(=S)n1-c1ccccc1 | > 100 |  |
| CC(C)=CCc1cc(O)cc2c1OC(C=C(C)C)C1=C2C(=O)C2=C(C1=O)S(=O)(=O)CCN2 (configuration not stated) | > 16.7 | 5.09 |

What follows are compounds tested on KM12 colon (assay: DTP human tumour cell line panel, 48 h).

| SMILES | TGI [µM] | GI50 [µM] |
| --- | --- | --- |
| O=c1c2ncn(C3CCCO3)c2n(-c2ccccc2)c(=S)n1-c1ccccc1 (configuration not stated) | > 100 |  |
| O=C1CCC/C=C\C[C@H]2C=CC(=O)/C2=C/C[C@H](C/C=C\CC(F)(F)F)O1 | 0.635 | 0.299 |
| Oc1cn(-c2ccc(Cl)cc2)nc1-c1n[nH]c(=S)n1-c1ccccc1 | 31.8 |  |
| CC(C)=CCc1cc(O)cc2c1OC(C=C(C)C)C1=C2C(=O)C2=C(C1=O)S(=O)(=O)CCN2 (configuration not stated) | > 16.7 | 5.8 |

The compounds below were run on HS 578T breast (assay: DTP human tumour cell line panel, 48 h).

| SMILES | TGI [µM] | GI50 [µM] |
| --- | --- | --- |
| CC(=O)c1c(O)ccc2c1c1c(n2C)C(=O)c2ccccc2C1=O | > 100 |  |
| O=C1CCC/C=C\C[C@H]2C=CC(=O)/C2=C/C[C@H](C/C=C\CC(F)(F)F)O1 | 9.68 | 1.17 |
| Oc1cn(-c2ccc(Cl)cc2)nc1-c1n[nH]c(=S)n1-c1ccccc1 | 55.1 |  |
| CC(C)=CCc1cc(O)cc2c1OC(C=C(C)C)C1=C2C(=O)C2=C(C1=O)S(=O)(=O)CCN2 (configuration not stated) | 13 | 3.15 |
